Measured values as given in US5298495A, “Partricin derivatives” (SPA Societa' Prodotti Antibiotici SpA, priority 1990, dated 1994).
Values after ≈ are worked out from the molar mass of the structure shown. Where two headings read alike, the source gives them in different places.

Tests used:
rat erytrocytes = assay: Hemolytic activity on rat erythrocytes; type: cell-based
From the text: (§1) MIC (ng/ml) Hemolytic con.(mcg/ml)
(§2) C. albicans 73 rat erytrocytes, […]

C. albicans 73 = assay: Microbiological activity on C. albicans (MIC); type: cell-based; settings: Fluid Sab. Med, 36° C.; for MIC: Candida albicans, 73
From the text: as §1, §2

[1] = Acute toxicity in mice (DL50); type: in vivo; settings: mouse, in vivo
[2] = Solubility and reaction in water; type: physicochemical
[3] = cited from earlier work
mice = assay: Acute toxicity in mice (DL50); type: in vivo
[4] = 24 h, read-out: MIC C. albicans 73, 24 h
[5] = 48 h, read-out: MIC C. albicans 73, 48 h
[6] = rat erytrocytes, 4 h at 37° C., minimum
[7] = rat erytrocytes, 4 h at 37° C., total

| Compound | Hemolytic con. total (THC) (rat erytrocytes) | Hemolytic con. min. (MHC) (rat erytrocytes; rat, 240 min) | MIC (C. albicans 73; [4]) | MIC (C. albicans 73; [5]) | LD50 ([1]; ip, read-out: DL50 mice i.p.) | also measured |
| --- | --- | --- | --- | --- | --- | --- |
| CNc1ccc(C(=O)CC(O)CCC(C)C2OC(=O)CC(O)CC(=O)CC(O)CC(O)CC(O)CC(O)CC3(O)CC(O)C(C(=O)NCCCN(C)C)C(CC(OC4OC(C)C(O)C(NC(=O)CN(C)C)C4O)C=CC=CC=CC=CC=CC=CC=CC2C)O3)cc1 (centres unmarked) | 10.4 µg/mL | 0.2 µg/mL | 0.015 µg/mL (≈ 0.0116 µM) | 0.03 µg/mL (≈ 0.0231 µM) | 12.4 mg/kg |  |
| CNc1ccc(C(=O)CC(O)CCC(C)C2OC(=O)CC(O)CC(=O)CC(O)CC(O)CC(O)CC(O)CC3(O)CC(O)C(C(=O)NCCN(C)C)C(CC(OC4OC(C)C(O)C(NC(=O)CN(C)C)C4O)C=CC=CC=CC=CC=CC=CC=CC2C)O3)cc1 (centres unmarked) [Example 5, N-DIMETHYLAMINOACETYL-PARTRICIN A 2-DIMETHYL-AMINOETHYLAMIDE DIASPARTATE] |  |  |  |  |  | solubility in water [2]: soluble in water; pH of aqueous solution (almost neutral reaction) ([2]; in water): 6 |
| CNc1ccc(C(=O)CC(O)CCC(C)C2OC(=O)CC(O)CC(=O)CC(O)CC(O)CC(O)CC(O)CC3(O)CC(O)C(C(=O)NCCN(C)C)C(CC(OC4OC(C)C(O)C(NC(=O)CN(C)C)C4O)C=CC=CC=CC=CC=CC=CC=CC2C)O3)cc1 (centres unmarked) [Partr. A, COCH2N(CH3)2, NHCH2 CH2N(CH3)2, N-dimethylaminoacetyl-partricin A 2-dimethylaminoethylamide] | > 18 µg/mL | 18 µg/mL | 0.0075 µg/mL (≈ 0.00585 µM) | 0.015 µg/mL (≈ 0.0117 µM) | 158 mg/kg | LD50 ([1]; iv, read-out: DL50 mice i.v.): 58 mg/kg |
| CNc1ccc(C(=O)CC(O)CCC(C)C2OC(=O)CC(O)CC(=O)CC(O)CC(O)CC(O)CC(O)CC3(O)CC(O)C(C(=O)N4CCN(CCO)CC4)C(CC(OC4OC(C)C(O)C(NC(=O)CN(C)C)C4O)C=CC=CC=CC=CC=CC=CC=CC2C)O3)cc1 (centres unmarked) [Partr. A, COCH2N(CH3)2, drawing 30] | 0.7 µg/mL | 0.2 µg/mL | 0.0075 µg/mL (≈ 0.00566 µM) | 0.0212 µg/mL (≈ 0.016 µM) |  |  |
| CNc1ccc(C(=O)CC(O)CCC(C)C2OC(=O)CC(O)CC(=O)CC(O)CC(O)CC(O)CC(O)CC3(O)CC(O)C(C(=O)N4CCN(C)CC4)C(CC(OC4OC(C)C(O)C(NC(=O)CN(C)C)C4O)C=CC=CC=CC=CC=CC=CC=CC2C)O3)cc1 (centres unmarked) [Partr. A, COCH2N(CH3)2, drawing 31] |  |  | 0.0075 µg/mL (≈ 0.00579 µM) | 0.0212 µg/mL (≈ 0.0164 µM) | 3.6 mg/kg | Hemolytic con. min. (MHC) (rat erytrocytes; [6]): 0.2 µg/mL; Hemolytic con. total (THC) (rat erytrocytes; [7]): 2 µg/mL |
| CNc1ccc(C(=O)CC(O)CCC(C)C2OC(=O)CC(O)CC(=O)CC(O)CC(O)CC(O)CC(O)CC3(O)CC(O)C(C(=O)NCCc4ccccn4)C(CC(OC4OC(C)C(O)C(NC(=O)CN(C)C)C4O)C=CC=CC=CC=CC=CC=CC=CC2C)O3)cc1 (centres unmarked) [Partr. A, COCH2N(CH3)2, drawing 50] | > 18 µg/mL | 18 µg/mL | 0.015 µg/mL (≈ 0.0114 µM) | 0.0424 µg/mL (≈ 0.0322 µM) | > 300 mg/kg | LD50 ([1]; iv, read-out: DL50 mice i.v.): 76.8 mg/kg |
| CNc1ccc(C(=O)CC(O)CCC(C)C2OC(=O)CC(O)CC(=O)CC(O)CC(O)CC(O)CC(O)CC3(O)CC(O)C(C(=O)OC)C(CC(OC4OC(C)C(O)C(NC(=O)CCN5CCCCC5)C4O)C=CC=CC=CC=CC=CC=CC=CC2C)O3)cc1 (centres unmarked) [Partr. A, drawing 32, OCH3] | 18 µg/mL | 3.5 µg/mL | 0.0075 µg/mL (≈ 0.00586 µM) | 0.0424 µg/mL (≈ 0.0331 µM) | > 30 mg/kg |  |
| CNc1ccc(C(=O)CC(O)CCC(C)C2OC(=O)CC(O)CC(=O)CC(O)CC(O)CC(O)CC(O)CC3(O)CC(O)C(C(=O)NCCN(C)C)C(CC(OC4OC(C)C(O)C(NC(=O)CCN5CCCCC5)C4O)C=CC=CC=CC=CC=CC=CC=CC2C)O3)cc1 (centres unmarked) [Partr. A, drawing 33, NHCH2 CH2N(CH3)2] | 18 µg/mL | 6 µg/mL | 0.0075 µg/mL (≈ 0.00561 µM) | 0.03 µg/mL (≈ 0.0224 µM) | 43.6 mg/kg |  |
| CNc1ccc(C(=O)CC(O)CCC(C)C2OC(=O)CC(O)CC(=O)CC(O)CC(O)CC(O)CC(O)CC3(O)CC(O)C(C(=O)N4CCN(CCO)CC4)C(CC(OC4OC(C)C(O)C(NC(=O)CCN5CCCCC5)C4O)C=CC=CC=CC=CC=CC=CC=CC2C)O3)cc1 (centres unmarked) [Partr. A, drawing 34, drawing 35] | 2 µg/mL | 0.2 µg/mL | 0.0075 µg/mL (≈ 0.00544 µM) | 0.03 µg/mL (≈ 0.0218 µM) |  |  |
| CNc1ccc(C(=O)CC(O)CCC(C)C2OC(=O)CC(O)CC(=O)CC(O)CC(O)CC(O)CC(O)CC3(O)CC(O)C(C(=O)N4CCN(C)CC4)C(CC(OC4OC(C)C(O)C(NC(=O)CCN5CCCCC5)C4O)C=CC=CC=CC=CC=CC=CC=CC2C)O3)cc1 (centres unmarked) [Partr. A, drawing 36, drawing 37] | 3.5 µg/mL | 0.2 µg/mL | 0.0075 µg/mL (≈ 0.00556 µM) | 0.015 µg/mL (≈ 0.0111 µM) |  |  |
| CNc1ccc(C(=O)CC(O)CCC(C)C2OC(=O)CC(O)CC(=O)CC(O)CC(O)CC(O)CC(O)CC3(O)CC(O)C(C(=O)OC)C(CC(OC4OC(C)C(O)C(NC(=O)CN5CCN(C)CC5)C4O)C=CC=CC=CC=CC=CC=CC=CC2C)O3)cc1 (centres unmarked) [Partr. A, drawing 38, OCH3] | 18 µg/mL | 0.7 µg/mL | 0.015 µg/mL (≈ 0.0117 µM) | 0.03 µg/mL (≈ 0.0234 µM) | 29.3 mg/kg |  |
| CNc1ccc(C(=O)CC(O)CCC(C)C2OC(=O)CC(O)CC(=O)CC(O)CC(O)CC(O)CC(O)CC3(O)CC(O)C(C(=O)NCCN(C)C)C(CC(OC4OC(C)C(O)C(NC(=O)CN5CCN(C)CC5)C4O)C=CC=CC=CC=CC=CC=CC=CC2C)O3)cc1 (centres unmarked) [Partr. A, drawing 39, NHCH2 CH2N(CH3)2] | 18 µg/mL | 2 µg/mL | 0.0106 µg/mL (≈ 0.00792 µM) | 0.03 µg/mL (≈ 0.0224 µM) | > 100 mg/kg |  |
| CNc1ccc(C(=O)CC(O)CCC(C)C2OC(=O)CC(O)CC(=O)CC(O)CC(O)CC(O)CC(O)CC3(O)CC(O)C(C(=O)N4CCN(CCO)CC4)C(CC(OC4OC(C)C(O)C(NC(=O)CN5CCN(C)CC5)C4O)C=CC=CC=CC=CC=CC=CC=CC2C)O3)cc1 (centres unmarked) [Partr. A, drawing 40, drawing 41] | 2 µg/mL | 0.2 µg/mL | 0.015 µg/mL (≈ 0.0109 µM) | 0.0212 µg/mL (≈ 0.0154 µM) |  |  |
| CNc1ccc(C(=O)CC(O)CCC(C)C2OC(=O)CC(O)CC(=O)CC(O)CC(O)CC(O)CC(O)CC3(O)CC(O)C(C(=O)N4CCN(C)CC4)C(CC(OC4OC(C)C(O)C(NC(=O)CN5CCN(C)CC5)C4O)C=CC=CC=CC=CC=CC=CC=CC2C)O3)cc1 (centres unmarked) [Partr. A, drawing 42, drawing 43] |  |  | 0.0075 µg/mL (≈ 0.00556 µM) | 0.0212 µg/mL (≈ 0.0157 µM) | 3.8 mg/kg | Hemolytic con. min. (MHC) (rat erytrocytes; [6]): 0.2 µg/mL; Hemolytic con. total (THC) (rat erytrocytes; [7]): 0.7 µg/mL |
| CNc1ccc(C(=O)CC(O)CCC(C)C2OC(=O)CC(O)CC(=O)CC(O)CC(O)CC(O)CC(O)CC3(O)CC(O)C(C(=O)OC)C(CC(OC4OC(C)C(O)C(NC(=O)CN5CCN(CCO)CC5)C4O)C=CC=CC=CC=CC=CC=CC=CC2C)O3)cc1 (centres unmarked) [Partr. A, drawing 44, OCH3] | 18 µg/mL | 0.7 µg/mL | 0.015 µg/mL (≈ 0.0114 µM) | 0.03 µg/mL (≈ 0.0229 µM) | > 30 mg/kg |  |
| CNc1ccc(C(=O)CC(O)CCC(C)C2OC(=O)CC(O)CC(=O)CC(O)CC(O)CC(O)CC(O)CC3(O)CC(O)C(C(=O)NCCN(C)C)C(CC(OC4OC(C)C(O)C(NC(=O)CN5CCN(CCO)CC5)C4O)C=CC=CC=CC=CC=CC=CC=CC2C)O3)cc1 (centres unmarked) [Partr. A, drawing 45, NHCH2 CH2N(CH3)2] | 18 µg/mL | 0.7 µg/mL | 0.0075 µg/mL (≈ 0.00548 µM) | 0.0212 µg/mL (≈ 0.0155 µM) | > 100 mg/kg |  |
| CNc1ccc(C(=O)CC(O)CCC(C)C2OC(=O)CC(O)CC(=O)CC(O)CC(O)CC(O)CC(O)CC3(O)CC(O)C(C(=O)N4CCN(CCO)CC4)C(CC(OC4OC(C)C(O)C(NC(=O)CN5CCN(CCO)CC5)C4O)C=CC=CC=CC=CC=CC=CC=CC2C)O3)cc1 (centres unmarked) [Partr. A, drawing 46, drawing 47] | 0.7 µg/mL | 0.2 µg/mL | 0.0106 µg/mL (≈ 0.00752 µM) | 0.0212 µg/mL (≈ 0.015 µM) |  |  |
| CNc1ccc(C(=O)CC(O)CCC(C)C2OC(=O)CC(O)CC(=O)CC(O)CC(O)CC(O)CC(O)CC3(O)CC(O)C(C(=O)N4CCN(C)CC4)C(CC(OC4OC(C)C(O)C(NC(=O)CN5CCN(CCO)CC5)C4O)C=CC=CC=CC=CC=CC=CC=CC2C)O3)cc1 (centres unmarked) [Partr. A, drawing 48, drawing 49] | 0.7 µg/mL | 0.2 µg/mL | 0.0075 µg/mL (≈ 0.00544 µM) | 0.015 µg/mL (≈ 0.0109 µM) |  |  |
| CNc1ccc(C(=O)CC(O)CCC(C)C2OC(=O)CC(O)CC(=O)CC(O)CC(O)CC(O)CC(O)CC3(O)CC(O)C(C(=O)NCCc4ccccn4)C(CC(OC4OC(C)C(O)C(NC(=O)CCN5CCCCC5)C4O)C=CC=CC=CC=CC=CC=CC=CC2C)O3)cc1 (centres unmarked) [Partr. A, drawing 51, drawing 52] | > 18 µg/mL | 6 µg/mL | 0.03 µg/mL (≈ 0.0219 µM) | 0.06 µg/mL (≈ 0.0438 µM) | > 300 mg/kg | LD50 ([1]; iv, read-out: DL50 mice i.v.): 109 mg/kg |
| mepartricin |  |  |  |  |  | solubility in water of mepartricin (words, background) [3]: water-insoluble |
| mepartricin [Partr., H, OCH3, reference compound] |  |  |  |  |  | Hemolytic con. min. (MHC) (rat erytrocytes; [6]): 0.7 µg/mL; Hemolytic con. total (THC) (rat erytrocytes; [7]): 18 µg/mL; MIC C. albicans 73, 24 h (C. albicans 73; 24 h): 0.0075 µg/mL; MIC C. albicans 73, 48 h (C. albicans 73; 48 h): 0.03 µg/mL; DL50 mice i.p. (mice): 15.8 mg/kg; DL50 mice i.v. (mice; i.v.): 5.02 mg/kg |
| partricin [Partr., H, OH, reference compound] |  |  |  |  |  | Hemolytic con. min. (MHC) (rat erytrocytes; [6]): < 0.2 µg/mL; Hemolytic con. total (THC) (rat erytrocytes; [7]): < 0.2 µg/mL; MIC C. albicans 73, 24 h (C. albicans 73; 24 h): 0.03 µg/mL; MIC C. albicans 73, 48 h (C. albicans 73; 48 h): 0.06 µg/mL; DL50 mice i.p. (mice): 0.63 mg/kg |
